From patent publication US10519177B2, “Heterocyclic compounds and uses thereof” (Plexxikon Inc., priority 2013, dated 2019) come the findings set out here.

One test deals with bromodomain. Description: at least one of the bromodomain cell assays of Example 57. In kind it is cell-based. The settings on record: at least one of the bromodomain cell assays described in Example 57; read-out: IC50 in at least one of the bromodomain cell assays.
A further test deals with MV-4-11 cells. Description: Oncology cell growth assay MV-4-11 (CellTiter Glo). Format: cell-based. The settings on record: Homo sapiens, MV4-11, 72 h; read-out: Cell activity (IC50 μM) MV-4-11 3d-Growth. In outline:
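Growth read by CellTiter Glo luminescence after 72 h compound treatment of MLL-AF4-bearing MV-4-11 cells (3000/well). Titration: 8 points, 1:3 steps, maximum 10 μM, 0.2% DMSO final. Data normalized to DMSO wells, four-parameter fit gives pIC50.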

For the next test, the target named is BRD4-BD12 (1-477) (Homo sapiens (Human), UniProt O60885). In words: Alphascreen binding assay BRD4-BD12. The settings on record: BRD4(1 2) H4; read-out: Biochemical activity (IC50 μM) BRD4(1 2) H4. The gist of the method:
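In this competition format, compounds displace a biotinylated tetra-acetyl H4 peptide from E. coli-expressed human BRD4 bromodomain constructs captured on nickel chelate beads. The reaction runs at pH 7.5 with 2 mM DTT and detergent for 1 h at room temperature before a 30 min bead step.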

Consider `Cc1noc(C)c1-c1cnc2c(-c3cnn(CC(F)(F)F)c3)cn([C@H](C)c3ccc(F)cc3)c2c1` [P-0351, 4-[1-[(1R)-1-(4-fluorophenyl)ethyl]-3-[1-(2,2,2-trifluoroethyl)pyrazol-4-yl]pyrrolo[3,2-b]pyridin-6-yl]-3,5-dimethyl-isoxazole], for which the figures for the half-maximal inhibitory concentration (IC50) in the test on bromodomain, in the test with MV-4-11 cells and at BRD4-BD12 (1-477) were less than 10 µM, less than 1 µM and less than 1 µM, respectively.

As for `Cc1noc(C)c1-c1cnc2c(-c3cnn(C(F)F)c3)cn([C@H](C)c3ccc(F)cc3)c2c1` [P-0352, 4-[3-[1-(difluoromethyl)pyrazol-4-yl]-1-[(1R)-1-(4-fluorophenyl)ethyl]pyrrolo[3,2-b]pyridin-6-yl]-3,5-dimethyl-isoxazole], the IC50 in the test with bromodomain was less than 10 µM; in the test with MV-4-11 cells, less than 1 µM; on BRD4-BD12 (1-477), less than 1 µM.

For the compound `Cc1noc(C)c1-c1cnc2c(-c3cnn(CC(F)(F)F)c3)cn(Cc3ncccn3)c2c1` [P-0353, 3,5-dimethyl-4-[1-(pyrimidin-2-ylmethyl)-3-[1-(2,2,2-trifluoroethyl)pyrazol-4-yl]pyrrolo(3,2-b]pyridin-6-yl]isoxazole], the IC50 in the test with bromodomain was less than 10 µM; with MV-4-11 cells, less than 1 µM; on BRD4-BD12 (1-477) it was less than 1 µM.

For `Cc1noc(C)c1-c1cnc2c(-c3cnn(CC(F)(F)F)c3)cn([C@@H](C)c3ccc(F)cc3)c2c1` [P-0354, 4-[1-[(1S)-1-(4-fluorophenyl)ethyl]-3-(1-(2,2,2-trifluoroethyl)pyrazol-4-yl]pyrrolo(3,2-b)pyridin-6-yl]-3,5-dimethyl-isoxazole], the IC50 was less than 10 µM in the test on bromodomain, less than 1 µM in the test with MV-4-11 cells and less than 1 µM at BRD4-BD12 (1-477).

As to `Cc1noc(C)c1-c1cnc2c(-c3cnn(C(F)F)c3)cn([C@@H](C)c3ccc(F)cc3)c2c1` [P-0355, 4-[3-[1-(difluoromethyl)pyrazol-4-yl]-1-[(1S)-1-(4-fluorophenyl)ethyl]pyrrolo[3,2-b]pyridin-6-yl]-3,5-dimethyl-isoxazole], the IC50 is less than 10 µM in the test with bromodomain, less than 1 µM in the test with MV-4-11 cells and less than 1 µM on BRD4-BD12 (1-477).

In the case of `Cc1noc(C)c1-c1cnc2c(-c3cnn(CC(F)(F)F)c3)cn(CC3(F)CC=C(F)CC3)c2c1` (stereo not drawn) [P-0356, 4-[1-[(1,4-difluorocyclohex-3-en-1-yl)methyl]-3-[1-(2,2,2-trifluoroethyl)pyrazol-4-yl]pyrrolo[3,2-b]pyridin-6-yl]-3,5-dimethyl-isoxazole], the results for the concentration for half-maximal inhibition (IC50) in the test with bromodomain, in the test with MV-4-11 cells and at BRD4-BD12 (1-477) were less than 10 µM, less than 1 µM and less than 1 µM, respectively.

Turning to `Cc1nnn(C)c1-c1cnc2c(-c3cnn(C(F)F)c3)cn(CC3CCC(F)(F)CC3)c2c1` [P-0357, 1-[(4,4-difluorocyclohexyl)methyl]-3-[1-(difluoromethyl)pyrazol-4-yl]-6-(3,5-dimethyltriazol-4-yl)pyrrolo[3,2-b]pyridine], the results for the half-maximal inhibitory concentration (IC50) in the test on bromodomain, in the test with MV-4-11 cells and at BRD4-BD12 (1-477) were less than 10 µM, less than 1 µM and less than 1 µM, respectively.

As for `[2H]C([2H])(C1CCC(F)(F)CC1)n1ccc2ncc(-c3c(C)nnn3CC)cc21` [P-0360, 1-[dideuterio-(4,4-difluorocyclohexyl)methyl]-6-(3-ethyl-5-methyl-triazol-4-yl)pyrrolo[3,2-b]pyridine], the half-inhibitory concentration (IC50) in the test with bromodomain was less than 10 µM; in the test on MV-4-11 cells it was 10 to 200 µM; on BRD4-BD12 (1-477), 1 to 10 µM.

Regarding `Cc1noc(C)c1-c1cnc2c(-c3cnn(C(F)F)c3)cn(C(C)c3ccccn3)c2c1` (stereo not drawn) [P-0361, 4-[3-[1-(difluoromethyl)pyrazol-4-yl]-1-[1-(2-pyridyl)ethyl]pyrrolo[3,2-b]pyridin-6-yl]-3,5-dimethyl-isoxazole], the IC50 in the test on bromodomain was less than 10 µM; in the test with MV-4-11 cells it was less than 1 µM; at BRD4-BD12 (1-477), less than 1 µM.

For `[2H]C([2H])(C1CCC(F)(F)CC1)n1cc(-c2cnn(C(=O)OC(C)(C)C)c2)c2ncc(-c3c(C)noc3C)cc21` [P-0362, tert-butyl 4-[1-[dideuterio-(4,4-difluorocyclohexyl)methyl]-6-(3,5-dimethylisoxazol-4-yl)pyrrolo[3,2-b]pyridin-3-yl]pyrazole-1-carboxylate], the 50% inhibitory concentration (IC50) in the test on bromodomain is less than 10 µM; with MV-4-11 cells it was less than 1 µM; at BRD4-BD12 (1-477), less than 1 µM.

Take `[2H]C([2H])(C1CCC(F)(F)CC1)n1cc(-c2ccc(C(=O)O)cc2)c2ncc(-c3c(C)noc3C)cc21` [P-0363, 4-[1-[dideuterio-(4,4-difluorocyclohexyl)methyl]-6-(3,5-dimethylisoxazol-4-yl)pyrrolo[3,2-b]pyridin-3-yl]benzoic acid]: the IC50 is less than 10 µM with bromodomain, less than 1 µM in the test with MV-4-11 cells and less than 1 µM at BRD4-BD12 (1-477).

Turning to `[2H]C([2H])(C1CCC(F)(F)CC1)n1cc(-c2cnc(N)cn2)c2ncc(-c3c(C)noc3C)cc21` [P-0364, 5-[1-[dideuterio-(4,4-difluorocyclohexyl)methyl]-6-(3,5-dimethylisoxazol-4-yl)pyrrolo[3,2-b]pyridin-3-yl]pyrazin-2-amine], the results for the half-maximal inhibitory concentration (IC50) with bromodomain, in the test on MV-4-11 cells and at BRD4-BD12 (1-477) were less than 10 µM, less than 1 µM and less than 1 µM, respectively.

Take `Cc1noc(C)c1-c1cnc2c(-c3cnn(CC(F)(F)F)c3)cn(Cc3ccc(Cl)cc3)c2c1` [P-0365, 4-[1-[(4-chlorophenyl)methyl]-3-[1-(2,2,2-trifluoroethyl)pyrazol-4-yl]pyrrolo[3,2-b]pyridin-6-yl]-3,5-dimethyl-isoxazole]: the half-maximal inhibitory concentration (IC50) with bromodomain is less than 10 µM; in the test with MV-4-11 cells, less than 1 µM; on BRD4-BD12 (1-477), less than 1 µM.

Take `Cc1noc(C)c1-c1cnc2c(-c3cnn(CC(F)(F)F)c3)cn(Cc3ccc(F)cc3)c2c1` [P-0366, 4-[1-[(4-fluorophenyl)methyl]-3-[l-(2,2,2-trifluoroethyl)pyrazol-4-yl]pyrrolo[3,2-b]pyridin-6-yl]-3,5-dimethyl-isoxazole]: the 50% inhibitory concentration (IC50) in the test with bromodomain was less than 10 µM; in the test with MV-4-11 cells, less than 1 µM; at BRD4-BD12 (1-477), less than 1 µM.

Consider `Cc1noc(C)c1-c1cnc2c(-c3ccc(C(=O)O)cc3)cn(CC3(F)CCCCC3)c2c1` [P-0367, 4-[6-(3,5-dimethylisoxazol-4-yl)-1-[(1-fluorocyclohexyl)methyl]pyrrolo[3,2-b]pyridin-3-yl]benzoic acid], for which the IC50 in the test on bromodomain was less than 10 µM; in the test on MV-4-11 cells, less than 1 µM; at BRD4-BD12 (1-477), less than 1 µM.

For the compound `Cc1onc(N)c1-c1cnc2c(-c3cnn(CC(F)(F)F)c3)cn(CC3CCC(F)(F)CC3)c2c1` [P-0368, 4-[1-[(4,4-difluorocyclohexyl)methyl]-3-[1-(2,2,2-trifluoroethyl)pyrazol-4-yl]pyrrolo[3,2-b]pyridin-6-yl]-5-methyl-isoxazol-3-amine], the IC50 in the test on bromodomain was less than 10 µM; with MV-4-11 cells, less than 1 µM; at BRD4-BD12 (1-477) it was less than 1 µM.

Consider `Cc1nnn(C)c1-c1cnc2c(-c3ccc(C(=O)O)cc3)cn(CC3(F)CCC(F)(F)CC3)c2c1` [P-0373, 4-[6-(3,5-dimethyltriazol-4-yl)-1-[(1,4,4-trifluorocyclohexyl)methyl]pyrrolo[3,2-b]pyridin-3-yl]benzoic acid], for which the IC50 is less than 10 µM in the test on bromodomain, less than 1 µM in the test on MV-4-11 cells and less than 1 µM at BRD4-BD12 (1-477).

`Cc1noc(C)c1-c1cnc2c(-c3ccc(C(=O)OC(C)(C)C)cc3)cn(S(=O)(=O)c3ccccc3)c2c1` [P-0374, tert-butyl 4-[1-(benzenesulfonyl)-6-(3,5-dimethylisoxazol-4-yl)pyrrolo[3,2-b]pyridin-3-yl]benzoate]: the half-maximal inhibitory concentration (IC50) with bromodomain is less than 10 µM; in the test on MV-4-11 cells it was 10 to 200 µM; at BRD4-BD12 (1-477) it was 1 to 10 µM.

On to `Cc1noc(C)c1-c1cnc2c(-c3ccc(C(=O)O)cc3)cn(Cc3ccccc3)c2c1` [P-0375, 4-[1-benzyl-6-(3,5-dimethylisoxazol-4-yl)pyrrolo[3,2-b]pyridin-3-yl]benzoic acid], for which the concentration for half-maximal inhibition (IC50) is less than 10 µM with bromodomain, less than 1 µM in the test on MV-4-11 cells and less than 1 µM on BRD4-BD12 (1-477).

Take `Cc1noc(C)c1-c1cnc2c(-c3cnn(CC(F)(F)F)c3)cn(Cc3ccccn3)c2c1` [P-0376, 3,5-dimethyl-4-[1-(2-pyridylmethyl)-3-[1-(2,2,2-trifluoroethyl)pyrazol-4-yl]pyrrolo[3,2-b]pyridin-6-yl]isoxazole]: the 50% inhibitory concentration (IC50) was less than 10 µM in the test with bromodomain, less than 1 µM in the test with MV-4-11 cells and less than 1 µM on BRD4-BD12 (1-477).

Turning to `Cc1nnn(C)c1-c1cnc2c(-c3ccc(C(=O)O)cc3)cn(CC3CCC(F)(F)CC3)c2c1` [P-0377, 4-[1-[(4,4-difluorocyclohexyl)methyl]-6-(3,5-dimethyltriazol-4-yl)pyrrolo[3,2-b]pyridin-3-yl]benzoic acid], the IC50 with bromodomain was less than 10 µM; in the test on MV-4-11 cells it was less than 1 µM; at BRD4-BD12 (1-477), less than 1 µM.

For `CNS(=O)(=O)c1ccc(-c2cn(CC3(F)CCCCC3)c3cc(-c4c(C)noc4C)cnc23)cc1` [P-0378, 4-[6-(3,5-dimethylisoxazol-4-yl)-1-[(1-fluorocyclohexyl)methyl]pyrrolo[3,2-b]pyridin-3-yl]-N-methyl-benzenesulfonamide], the figures for the concentration for half-maximal inhibition (IC50) in the test with bromodomain, in the test on MV-4-11 cells and at BRD4-BD12 (1-477) were less than 10 µM, less than 1 µM and less than 1 µM, respectively.

Regarding `Cc1noc(C)c1-c1cnc2c(-c3ccc(S(N)(=O)=O)cc3)cn(CC3(F)CCCCC3)c2c1` [P-0379, 4-[6-(3,5-dimethylisoxazol-4-yl)-1-[(1-fluorocyclohexyl)methyl]pyrrolo[3,2-b]pyridin-3-yl]benzenesulfonamide], the IC50 was less than 10 µM in the test on bromodomain, less than 1 µM with MV-4-11 cells and less than 1 µM at BRD4-BD12 (1-477).

In the case of `Cc1noc(C)c1-c1cnc2c(-c3cnn(C)c3)cn(CC3(F)CCC(F)(F)CC3)c2c1` [P-0381, 3,5-dimethyl-4-[3-(1-methylpyrazol-4-yl)-1-[(1,4,4-trifluorocyclohexyl)methyl]pyrrolo[3,2-b]pyridin-6-yl]isoxazole], the half-inhibitory concentration (IC50) in the test on bromodomain is less than 10 µM; in the test on MV-4-11 cells it was less than 1 µM; on BRD4-BD12 (1-477) it was less than 1 µM.
